Test system: soluble epoxide hydrolase (sEH)
Experiment: Fluorescent assay for soluble epoxide hydrolase (CMNPC substrate), percent inhibition at the recited concentration
Type: biochemical
Details: Inhibition Conc. 50 nM
From the text: Fluorescent Assay for Mouse and Human Soluble Epoxide Hydrolase Recombinant mouse sEH (MsEH) and human sEH (HsEH) were produced in a baculovirus expression system as previously reported. Grant et al., J. Biol. Chem., 268:17628-17633 (1993); Beetham et al., Arch. Biochem. Biophys., 305:197-201 (1993). The expressed proteins were purified from cell lysate by affinity chromatography. Wixtrom et al., Anal. Biochem., 169:71-80 (1988). Protein concentration was quantified using the Pierce BCA assay using bovine serum albumin as the calibrating standard. The preparations were at least 97% pure as judged by SDS-PAGE and scanning densitometry. They contained no detectable esterase or glutathione transferase activity which can interfere with the assay. The assay was also evaluated with similar results in crude cell lysates or homogenate of tissues. The IC50s for each inhibitor were determined according to the following procedure: […] Jones P. D. et al.; Analytical Biochemistry 2005; 343: pp. 66-75) Bis/Tris HCl 25 mM pH 7.0 containing 0.1 mg/mL of BSA (buffer […] at 0.25 mM in DMSO. Mother solution of enzyme in buffer A (Mouse sEH at 6 μg/mL and Human sEH at 5 μg/mL). Inhibitor dissolved in DMSO at the appropriate concentration. In a black 96 well plate, fill all the wells with 150 μL of buffer A. Add 2 μL of DMSO in well A2 and A3, and then add 2 μL of inhibitor solution in A1 and A4 through A12. Add 150 μL of buffer A in row A, then mix several time and transfer 150 μL to row B. Repeat this operation up to row H. The 150 μL removed from row H is discarded. Add 20 μL of buffer A in column 1 and 2, then add 20 μL of enzyme solution to column 3 to 12. Incubate the plate for 5 minutes in the plate reader at 30° C. During incubation prepare the working solution of substrate by mixing 3.68 mL of buffer A (4×0.920 mL) with 266 μL (2×133 μL) of substrate solution). At t=0, add 30 μL of working substrate solution with multi-channel pipette labeled “Briggs 303” and start the reading ([S]final: 5 μM). Read with ex: 330 nm (20 nm) and em: 465 nm (20 nm) every 30 second for 10 minutes. The velocities are used to analyze and calculate the IC50s. Tables 1-7 above provide the percent inhibition of the enzyme when tested at the concentration recited therein.

% inh. | SMILES
87% | CC(=O)N1CCC(NC(=O)NCC23CC4CC(CC(C4)C2)C3)CC1 [Compound 1-1, 1-(1-acetyl-piperidin-4-yl)-3-(1-adamantyl-methyl)-urea]
13% | O=C(Nc1ccc(C(F)(F)F)cc1)NC1CCN(c2ccc(C(F)(F)F)cn2)CC1 [Compound 2-1]
97% | O=C(Nc1ccc(C(F)(F)F)cc1)NC1CCN(c2ncccc2C(F)(F)F)CC1 [Compound 2-2]
98% | O=C(NC1CCN(c2ccccc2)CC1)NC12CC3CC(CC(C3)C1)C2 [Compound 2-3, 1-(1-adamantyl)-3-(1-phenylpiperidin-4-yl)urea]
99% | O=C(Nc1ccc(C(F)(F)F)cc1)NC1CCN(c2ccccc2)CC1 [Compound 2-5, 1-(1-phenylpiperidin-4-yl)-3-(4-(trifluoro-methyl)phenyl)urea]
60% | NC(=O)c1cccnc1N1CCC(NC(=O)Nc2ccc(C(F)(F)F)cc2)CC1 [Compound 2-6, 2-(4-(3-(4-(trifluoro-methyl)phenyl)ureido)-piperidin-1-yl)nicotinamide]
90% | NS(=O)(=O)c1ccc(C(=O)N2CCC(NC(=O)Nc3ccc(C(F)(F)F)cc3)CC2)cc1 [Compound 4-1, 4-(4-(3-(4-(trifluoromethyl)phenyl)ureido)piperidine-1-carbonyl)benzene-sulfonamide]
98% | NS(=O)(=O)c1ccc(C(=O)N2CCC(NC(=O)Nc3ccc(OC(F)(F)F)cc3)CC2)cc1 [Compound 4-2, 4-(4-(3-(4-(trifluoromethoxy)-phenyl)ureido)-piperidine-1-carbonyl)benzenesulfonamide]
93% | NS(=O)(=O)c1ccc(C(=O)N2CCC(NC(=O)NC34CC5CC(CC(C5)C3)C4)CC2)cc1 [Compound 4-3, 4-(4-(3-(1-adamantyl)ureido)-piperidine-1-carbonyl)benzene-sulfonamide]
93% | NS(=O)(=O)c1cccc(C(=O)N2CCC(NC(=O)NC34CC5CC(CC(C5)C3)C4)CC2)c1 [Compound 4-4, 3-(4-(3-(1-adamantyl)ureido)-piperidine-1-carbonyl)benzene-sulfonamide]
99% | CNS(=O)(=O)c1cccc(C(=O)N2CCC(NC(=O)NC34CC5CC(CC(C5)C3)C4)CC2)c1 [Compound 4-5, 3-(4-(3-(1-adamantyl)ureido)-piperidine-1-carbonyl)-N-methylbenzene-sulfonamide]
99% | NS(=O)(=O)c1cccc(C(=O)N2CCC(NC(=O)Nc3ccc(C(F)(F)F)cc3)CC2)c1 [Compound 4-6, 3-(4-(3-(4-(trifluoromethyl)phenyl)ureido)piperidine-1-carbonyl)benzene-sulfonamide]
92% | CNS(=O)(=O)c1ccc(C(=O)N2CCC(NC(=O)Nc3ccc(C(F)(F)F)cc3)CC2)cc1 [Compound 4-7, 4-(4-(3-(4-(trifluoromethyl)phenyl)ureido)piperidine-1-carbonyl)-N-methylbenzene-sulfonamide]
93% | CNS(=O)(=O)c1ccc(C(=O)N2CCC(NC(=O)NC34CC5CC(CC(C5)C3)C4)CC2)cc1 [Compound 4-8, 4-(4-(3-(1-adamantyl)ureido)-piperidine-1-carbonyl)-N-methylbenzene-sulfonamide]
99% | CNS(=O)(=O)c1cccc(C(=O)N2CCC(NC(=O)Nc3ccc(C(F)(F)F)cc3)CC2)c1 [Compound 4-9, N-methyl-3-(4-(3-(4-(trifluoromethyl)phenyl)ureido)piperidine-1-carbonyl)benzene-sulfonamide]

Same assay, conditions: Inhibition Conc. 200 nM

% inh. | SMILES
93% | CC(=O)N1CCC(NC(=O)NCc2ccc(C(F)(F)F)cc2)CC1 [Compound 1-3, 1-(1-acetylpiperidin-4-yl)-3-(4-(trifluoromethyl)benzyl)urea]
100% | CC(=O)N1CCC(NC(=O)NCCC(c2ccccc2)c2ccccc2)CC1 [Compound 1-7, 1-(1-acetypiperidin-4-yl)-3-(3,3-diphenylpropyl)urea]
98% | O=C(Nc1ccc(C(F)(F)F)cc1)NC1CCN(c2nccs2)CC1 [Compound 2-8, 1-(1-(thiazol-2-yl)piperidin-4-yl)-3-(4-(trifluoromethyl)phenyl)urea]
42% | CC(=O)N1CCC(NC(=O)NC23CC4CC(C2)C(=O)C(C4)C3)CC1 [Compound 3-9, 1-(1-acetylpiperidin-4-yl)-3-(4-oxoadamantyl)urea]
76% | CC(=O)N1CCC(NC(=O)NC23CC4CC(C2)C(F)(F)C(C4)C3)CC1 [Compound 3-10, 1-(1-acetylpiperidin-4-yl)-3-(4,4-difluoroadamantyl)urea]
88% | CC(=O)N1CCC(NC(=O)NC23CC4CC(C2)C(F)C(C4)C3)CC1 (stereo not drawn) [Compound 3-11, 1-(1-acetylpiperidin-4-yl)-3-(4-fluoroadamantyl)urea]

Same assay, conditions: Inhibition Conc. 500 nM

% inh. | SMILES
92% | CC(=O)N1CCC(NC(=O)NCC2CCCCC2)CC1 [Compound 1-2, 1-(1-acetylpiperidin-4-yl)-3-(cyclo-hexylmethyl)urea]
85% | CC(=O)N1CCC(NC(=O)NCCCCCCCCO)CC1 [Compound 1-6, 1-(1-acetylpiperidin-4-yl)-3-(8-hydroxyoctyl)urea]
64% | O=C(Nc1ccc(C(F)(F)F)cc1)NC1CCN(c2ncccc2C(=O)O)CC1 [Compound 2-7]
70% | CC(=O)N1CCC(NC(=O)NC23CC4(F)CC(F)(CC(F)(C4)C2)C3)CC1 [Compound 3-1, 1-(1-acetylpiperidin-4-yl)-3-(3,5,7-trifluoroadamant-1-yl)urea]
63% | CC(=O)N1CCC(NC(=O)NC23CC4CC(F)(CC(F)(C4)C2)C3)CC1 [Compound 3-3, 1-(1-acetylpiperidin-4-yl)-3-(3,5-difluoroadamant-1-yl)urea]
82% | CC(=O)N1CCC(NC(=O)NC23CC4CC(CC(F)(C4)C2)C3)CC1 [Compound 3-4, 1-(1-acetylpiperidin-4-yl)-3-(3-fluoroadamant-1-yl)urea]

Same assay, conditions: Inhibition Conc. 2000 nM

% inh. | SMILES
80% | CC(=O)N1CCC(NC(=O)NCC2CCOCC2)CC1 [Compound 1-4, 1-(1-acetylpiperidin-4-yl)-3-((tetrahydro-2H-pyran-4-yl)methyl)urea]
66% | COc1ccc(CNC(=O)NC2CCN(C(C)=O)CC2)cc1OC [Compound 1-5, 1-(1-acetylpiperidin-4-yl)-3-(3,4-dimethoxy-benzyl)urea]
95% | COC(=O)c1ccc(CNC(=O)NC2CCN(C(C)=O)CC2)cc1 [Compound 1-8, methyl 4-((3-(1-acetylpiperidin-4-yl)ureido)methyl)benzoate]
99% | O=C(Nc1ccc(OC(F)(F)F)cc1)NC1CCN(c2ccccc2)CC1 [Compound 2-9, 1-(1-phenylpiperidin-4-yl)-3-(4-(trifluoromethoxy)phenyl)urea]
100% | O=C(Nc1ccc(OC(F)(F)F)cc1)NC1CCN(c2ccc(F)cc2)CC1 [Compound 2-11, 1-(1-(4-fluorophenyl)piperidin-4-yl)-3-(4-(trifluoromethoxy)phenyl)urea]
18% | O=C(Nc1ccc(C(F)(F)F)cc1)NC1CCN(c2ccccc2F)CC1 [Compound 2-13, 1-(1-(2-fluorophenyl)piperidin-4-yl)-3-(4-(trifluoromethyl)phenyl)urea]

Same assay, conditions: Inhibition Conc. 5000 nM

% inh. | SMILES
87% | CC(=O)N1CCC(NC(=O)NC23CC4CC(C2)C(O)C(C4)C3)CC1 (single isomer, unassigned) [Compound 3-5, 1-(1-acetylpiperidin-4-yl)-3-(4-hydroxyadamant-1-yl)urea]
81% | CC(=O)N1CCC(NC(=O)NC23CC4CC(C2)C(O)C(C4)C3)CC1 (single isomer, unassigned) [Compound 3-7]
76% | CC(=O)N1CCC(NC(=O)NC23CC4CC(C2)C(O)C(C4)C3)CC1 (single isomer, unassigned) [Compound 3-8]
92% | O=C(NC1CCN(c2ccncc2)CC1)NC12CC3CC(CC(C3)C1)C2 [Compound 2-4, 1-(1-adamantyl)-3-(1-(pyridin-4-yl)piperidin-4-yl)urea]
67% | CC(=O)N1CCC(NC(=O)NC23CC4CC(CC(O)(C4)C2)C3)CC1 [Compound 3-2, 1-(1-acetylpiperidin-4-yl)-3-(3-hydroxyadamant-1-yl)urea]

Same assay, conditions: Inhibition Conc. 50000 nM

% inh. | SMILES
94% | CC(=O)N1CCC(NC(=O)NC23CC4CC(CC(C4)C2O)C3)CC1 (stereo not drawn) [Compound 3-6, 1-(1-acetylpiperidin-4-yl)-3-(2-hydroxyadamant-1-yl)urea]
